Drawing on the NIST ThermoML archive (doi:10.1021/je049940f), this text covers viscosity for three compounds.

Numbers after ± are expanded uncertainties.

A short description of data set [1]: xn = mol fraction of the nth substance listed. Conditions: 10000 kPa, Liquid.
Data set [2] can be described thus: wn = mass fraction of the nth substance listed. Conditions: Liquid.

Consider `O=C=O` [carbon dioxide] + O, for which the viscosity in data set [1] (303.15 K, x1 = 0.0073) worked out at 0.81 ± 0.05 mPa·s; in data set [1] (303.15 K, x1 = 0.0148) it was 0.86 ± 0.05 mPa·s; in data set [1] (303.15 K, x1 = 0.0238), 0.89 ± 0.06 mPa·s; in data set [1] (313.15 K, x1 = 0.0107) it was 0.68 ± 0.04 mPa·s; in data set [1] (313.15 K, x1 = 0.0207), 0.7 ± 0.06 mPa·s.
Take `[Cl-].[Na+]` [sodium chloride] + O: the viscosity in data set [2] (303.15 K, 10000 kPa, w1 = 0.03) was determined as 0.84 ± 0.05 mPa·s; in data set [2] (303.15 K, 20000 kPa, w1 = 0.03), 0.83 ± 0.05 mPa·s; in data set [2] (313.15 K, 10000 kPa, w1 = 0.03), 0.68 ± 0.04 mPa·s; in data set [2] (313.15 K, 20000 kPa, w1 = 0.03), 0.69 ± 0.04 mPa·s; in data set [2] (323.15 K, 10000 kPa, w1 = 0.03), 0.59 ± 0.04 mPa·s; in data set [2] (323.15 K, 20000 kPa, w1 = 0.03), 0.59 ± 0.04 mPa·s. Besides, the viscosity is reported as 0.49 ± 0.04 mPa·s in data set [2] (333.15 K, 10000 kPa, w1 = 0.03) and 0.5 ± 0.04 mPa·s in data set [2] (333.15 K, 20000 kPa, w1 = 0.03).
For the compound `O` [water] + [Cl-].[Na+], the viscosity in data set [2] (303.15 K, 10000 kPa, w2 = 0) was found to be 0.8 ± 0.05 mPa·s; in data set [2] (313.15 K, 10000 kPa, w2 = 0) it was 0.66 ± 0.04 mPa·s; in data set [2] (323.15 K, 10000 kPa, w2 = 0), 0.56 ± 0.04 mPa·s; in data set [2] (333.15 K, 10000 kPa, w2 = 0) it was 0.47 ± 0.04 mPa·s.
